Legend:
Assay in all cases: 3H-thymidine assay
Type in all cases: cell-based
[1] = test system: Tp 410 N neuroblastoma cells; conditions: Homo sapiens, Neuroblastoma cell
CAKI-1 cells = conditions: Homo sapiens, CAKI-1
Experimental: (§1) The cell lines were cultivated as indicated in Example 1.
(§2) The antiproliferative effect of the 1,2-benzopyrone derivatives according to the invention on the tumor cell lines in each case was shown with the help of the ^3 H-thymidine insertion and with reference to growth curves.
(§3) In a 24-well-plate, in each case 10^4 cells of the line to be investigated were inoculated per well. Approximately 48 hours later the cells were half-confluent; the medium was then changed and replaced by a medium containing the active substance in question (cf Table 3). After a further 48 hours 0.25 μCi ^3 H-thymidine (Ammersham) was added to each well and the cells were incubated for a further 24 hours. Subsequently the cultures were washed twice with ice-cold PBS and the high-molecular-weight ^3 H-radioactivity was precipitated with 5% trichloroacetic acid for one hour at 4° C. After the washing of the cells in PBS the ^3 H-radioactivity was solubilized with 0.3M NaOH and measured in the counter. The growth-inhibition was determined by comparing the thymidine insertion of the cells treated with active substance with untreated cells.
(§4) The active substance concentration in each case was so chosen that ^3 H-thymidine insertion was 50% inhibited. The active substance concentrations used under this aspect for the active substances and cell lines in each case are given in table 4 below in μM/ml, […]

K-562 leukemic cells = conditions: Homo sapiens, K562
Experimental: as §1, §2, §3, §4

At T 20 = conditions: Mus musculus, AtT20
Experimental: as §1, §2, §3, §4

[2] = test system: MCF-7 breast cancer cells; conditions: Homo sapiens, MCF7
Experimental: as §1, §2, §3, §4

[3] = test system: Tp 483 MG glioblastoma cells
[4] = test system: GV-1 prostate carcinoma cells
CAKI-2 cells = conditions: Homo sapiens, CAKI-2
Experimental: as §1, §2
as §3, with “After a further 48 hours 0.25 μCi ^3 H-thymidine (Ammersham) was added to each well and the cells were incubated for a further 24 hours.” left out
as §4

HCV cells = test system: HCV cells
[5] = 1 μM/ml, read-out: 3H-thymidine insertion (%) of control
[6] = 2 μM/ml, read-out: 3H-thymidine insertion (%) of control
[7] = 4 μM/ml, read-out: 3H-thymidine insertion (%) of control
[8] = 8 μM/ml, read-out: 3H-thymidine insertion (%) of control
[9] = 16 μM/ml, read-out: 3H-thymidine insertion (%) of control
[10] = 25 μM/ml, read-out: 3H-thymidine insertion (%) of control
[11] = 50 μM/ml, read-out: 3H-thymidine insertion (%) of control
[12] = 100 μM/ml, read-out: 3H-thymidine insertion (%) of control
[13] = 250 μM/ml, read-out: 3H-thymidine insertion (%) of control
[14] = 500 μM/ml, read-out: 3H-thymidine insertion (%) of control
[15] = Table 4, read-out: active substance concentration at which 3H-thymidine insertion was 50% inhibited
[16] = 1 μM/ml, read-out: 3H-thymidine tracer (%) of control
[17] = 2 μM/ml, read-out: 3H-thymidine tracer (%) of control
[18] = 4 μM/ml, read-out: 3H-thymidine tracer (%) of control
[19] = 8 μM/ml, read-out: 3H-thymidine tracer (%) of control
[20] = 16 μM/ml, read-out: 3H-thymidine tracer (%) of control
[21] = 25 μM/ml, read-out: 3H-thymidine tracer (%) of control
[22] = 50 μM/ml, read-out: 3H-thymidine tracer (%) of control
[23] = 100 μM/ml, read-out: 3H-thymidine tracer (%) of control
[24] = 150 μM/ml, read-out: 3H-thymidine tracer (%) of control
[25] = 500 μM/ml, read-out: 3H-thymidine tracer (%) of control
[26] = Table 4, *: maximum usable dosage, no 50% inhibition, read-out: active substance concentration at which 3H-thymidine insertion was 50% inhibited
[27] = 250 μM/ml, read-out: 3H-thymidine tracer (%) of control
[28] = read-out: 3H-thymidine tracer (%) of control

O=c1ccc2cc(O)c(O)cc2o1 [Esculetin, 6,7-hydroxy-1,2-benzopyrone]
activity at 1 µM [1, 5]: 94% | activity at 2 µM [1, 6]: 86% | activity at 4 µM [1, 7]: 75% | activity at 8 µM [1, 8]: 69% | activity at 16 µM [1, 9]: 64% | activity at 25 µM [1, 10]: 48% | activity at 50 µM [1, 11]: 42% | activity at 100 µM [1, 12]: 40% | activity at 250 µM [1, 13]: 34% | activity at 500 µM [1, 14]: 29% | IC50 [1, 15]: 25 µM | activity at 1 µM (CAKI-1 cells; [16]): 96% | activity at 2 µM (CAKI-1 cells; [17]): 93% | activity at 4 µM (CAKI-1 cells; [18]): 88% | activity at 8 µM (CAKI-1 cells; [19]): 80% | activity at 16 µM (CAKI-1 cells; [20]): 62% | activity at 25 µM (CAKI-1 cells; [21]): 58% | activity at 50 µM (CAKI-1 cells; [22]): 53% | activity at 100 µM (CAKI-1 cells; [23]): 45% | activity at 150 µM (CAKI-1 cells; [24]): 40% | activity at 500 µM (CAKI-1 cells; [25]): 32% | IC50 (CAKI-1 cells; [26]): 50 µM | activity at 1 µM (K-562 leukemic cells; [16]): 97% | activity at 2 µM (K-562 leukemic cells; [17]): 95% | activity at 4 µM (K-562 leukemic cells; [18]): 84% | activity at 8 µM (K-562 leukemic cells; [19]): 77% | activity at 16 µM (K-562 leukemic cells; [20]): 62% | activity at 25 µM (K-562 leukemic cells; [21]): 58% | activity at 50 µM (K-562 leukemic cells; [22]): 50% | activity at 100 µM (K-562 leukemic cells; [23]): 47% | activity at 250 µM (K-562 leukemic cells; [27]): 44% | activity at 500 µM (K-562 leukemic cells; [25]): 31% | IC50 (K-562 leukemic cells; [15]): 50 µM | activity at 1 µM (At T 20; [16]): 93% | activity at 2 µM (At T 20; [17]): 89% | activity at 4 µM (At T 20; [18]): 86% | activity at 8 µM (At T 20; [19]): 75% | activity at 16 µM (At T 20; [20]): 75% | activity at 25 µM (At T 20; [21]): 67% | activity at 50 µM (At T 20; [22]): 62% | activity at 100 µM (At T 20; [23]): 55% | activity at 250 µM (At T 20; [27]): 49% | activity at 500 µM (At T 20; [25]): 44% | IC50 (At T 20; [15]): 250 µM | activity at 1 µM [2, 16]: 100% | activity at 2 µM [2, 17]: 98% | activity at 4 µM [2, 18]: 92% | activity at 8 µM [2, 19]: 85% | activity at 16 µM [2, 20]: 76% | activity at 25 µM [2, 21]: 69% | activity at 50 µM [2, 22]: 64% | activity at 100 µM [2, 23]: 58% | activity at 250 µM [2, 27]: 50% | activity at 500 µM [2, 25]: 42% | IC50 [2, 26]: 250 µM | activity at 1 µM [3, 5]: 98% | activity at 2 µM [3, 6]: 94% | activity at 4 µM [3, 7]: 85% | activity at 8 µM [3, 8]: 77% | activity at 16 µM [3, 9]: 73% | activity at 25 µM [3, 10]: 69% | activity at 50 µM [3, 11]: 62% | activity at 100 µM [3, 12]: 55% | activity at 250 µM [3, 13]: 39% | activity at 500 µM [3, 14]: 28% | IC50 [3, 15]: 150 µM | activity at 1 µM [4, 16]: 97% | activity at 2 µM [4, 17]: 93% | activity at 4 µM [4, 18]: 88% | activity at 8 µM [4, 19]: 84% | activity at 16 µM [4, 20]: 78% | activity at 25 µM [4, 21]: 75% | activity at 50 µM [4, 22]: 63% | activity at 100 µM [4, 23]: 60% | activity at 250 µM [4, 27]: 58% | activity at 500 µM [4, 25]: 50% | IC50 [4, 15]: 500 µM | activity at 1 µM (CAKI-2 cells; [16]): 98% | activity at 2 µM (CAKI-2 cells; [17]): 94% | activity at 4 µM (CAKI-2 cells; [18]): 90% | activity at 8 µM (CAKI-2 cells; [19]): 87% | activity at 16 µM (CAKI-2 cells; [20]): 82% | activity at 25 µM (CAKI-2 cells; [21]): 69% | activity at 50 µM (CAKI-2 cells; [22]): 65% | activity at 100 µM (CAKI-2 cells; [23]): 54% | activity at 150 µM (CAKI-2 cells; [24]): 53% | activity at 500 µM (CAKI-2 cells; [25]): 50% | IC50 (CAKI-2 cells; [26]): 500 µM | activity at 1 µM (HCV cells; [28]): 99% | activity at 2 µM (HCV cells; [28]): 94% | activity at 4 µM (HCV cells; [28]): 87% | activity at 8 µM (HCV cells; [28]): 83% | activity at 16 µM (HCV cells; [28]): 78% | activity at 25 µM (HCV cells; [28]): 76% | activity at 50 µM (HCV cells; [28]): 71% | activity at 250 µM (HCV cells; [28]): 64% | activity at 500 µM (HCV cells; [28]): 62% | IC50 (HCV cells; read-out: active substance concentration at which 3H-thymidine insertion was 50% inhibited): > 500 µM
